Measurements taken from patent US9334263B2, “Compositions useful for treating disorders related to kit” (BLUEPRINT MEDICINES CORPORATION, priority 2013, dated 2016).

Key:
wild type Kit = biological target: T1, wild type Kit (Homo sapiens, UniProt P10721); assay: Kit wild type assay at Km (Caliper electrophoretic mobility shift); assay type: biochemical; details: 400 uM ATP, 25 C, 90 minutes; read-out: WT KIT
T1 construct: purchased Carna Bioscience 08-156
Description: In order to assess the activity of chemical compounds against the relevant kinase of interest, the Caliper LifeSciences electrophoretic mobility shift technology platform is used. Fluorescently labeled substrate peptide is incubated in the presence of kinase and ATP so that a […] proportion of the peptide is phosphorylated. At the end of the reaction, the mix of phosphorylated (product) and non-phosphorylated (substrate) peptides are passed through the microfluidic system of the Caliper EZ Reader 2, under an applied potential difference. The presence of the phosphate group on the product peptide provides a difference in mass and charge between those of the substrate peptide, resulting in a separation of the substrate and product pools in the sample. As the pools pass a LEDS within the instrument, these pools are detected and resolved as separate peaks. The ratio between these peaks therefore reflects the activity of the chemical matter at that concentration in that well, under those conditions.
The reaction was stopped by the addition of 70 ul of Stop buffer (100 mM HEPES pH 7.5, 0.015% Brij 35, 35 mM EDTA and 0.2% of Coating Reagent 3 (Caliper Lifesciences)). The plate was then read on a Caliper EZReader 2 (protocol settings: −1.9 psi, upstream voltage −700, downstream voltage −3000, post sample sip 35 s).

D816V Kit = biological target: T2, D816V Kit (Homo sapiens, UniProt P10721, D816V); assay: Kit D816V assay at Km (Caliper electrophoretic mobility shift); assay type: biochemical; details: 15 uM ATP, 25 C, 90 minutes
T2 construct: purchased Carna Bioscience 08-156
T2 sequence (P10721 26-976 D816V): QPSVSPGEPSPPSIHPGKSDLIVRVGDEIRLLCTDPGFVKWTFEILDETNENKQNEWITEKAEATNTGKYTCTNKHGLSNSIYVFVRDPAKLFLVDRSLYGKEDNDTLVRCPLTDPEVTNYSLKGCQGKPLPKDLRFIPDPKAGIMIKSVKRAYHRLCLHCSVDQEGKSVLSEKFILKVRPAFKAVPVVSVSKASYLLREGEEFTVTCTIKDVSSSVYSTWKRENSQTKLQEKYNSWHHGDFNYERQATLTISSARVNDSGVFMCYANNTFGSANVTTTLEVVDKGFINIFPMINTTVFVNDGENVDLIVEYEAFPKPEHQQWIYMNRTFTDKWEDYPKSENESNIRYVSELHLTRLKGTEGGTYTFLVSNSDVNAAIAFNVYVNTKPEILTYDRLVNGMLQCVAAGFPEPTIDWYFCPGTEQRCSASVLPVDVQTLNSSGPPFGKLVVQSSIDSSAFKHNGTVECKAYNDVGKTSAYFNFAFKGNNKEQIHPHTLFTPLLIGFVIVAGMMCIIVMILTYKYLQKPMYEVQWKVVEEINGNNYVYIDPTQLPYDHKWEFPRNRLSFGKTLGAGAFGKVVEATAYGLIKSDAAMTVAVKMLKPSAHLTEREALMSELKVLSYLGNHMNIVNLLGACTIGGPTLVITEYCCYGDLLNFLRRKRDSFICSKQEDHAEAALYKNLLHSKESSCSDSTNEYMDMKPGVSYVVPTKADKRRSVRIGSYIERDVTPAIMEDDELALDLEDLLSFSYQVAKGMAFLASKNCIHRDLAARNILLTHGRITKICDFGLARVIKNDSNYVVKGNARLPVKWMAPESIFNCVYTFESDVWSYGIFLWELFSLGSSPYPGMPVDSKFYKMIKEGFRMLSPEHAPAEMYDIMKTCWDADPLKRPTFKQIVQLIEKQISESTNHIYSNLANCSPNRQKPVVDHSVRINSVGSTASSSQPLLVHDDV
How it was run: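 Read-out is the ratio of phosphorylated to unphosphorylated fluorescent peptide, resolved by mobility shift on a Caliper EZ Reader 2.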

[1] = biological target: T3, Kit D816V (HMC1.2 cells, Kit V560G and D816V) (Homo sapiens, UniProt P10721, D816V/V560G); assay: HMC1.2 autophosphorylation assay (AlphaLISA, phospho-Y719 c-Kit); assay type: cell-based; details: Kit autophosphorylation at tyrosine 719, 90 minutes, read-out: Cellular Activity
T3 construct: endogenous in cells; host or cells: HMC1.2 cells
T3 sequence (P10721 26-976 V560G/D816V): as the sequence (P10721 26-976 D816V) above, with V535G counted along it
How it was run: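 Serum-starved (overnight, serum-free IMDM) HMC1.2 cells were treated for 90 min with a 10-point compound series (25 uM–95.4 pM, 0.25% DMSO final). Lysates were probed with phospho-Y719 and total c-Kit antibodies (15 nM final) plus AlphaLISA acceptor and streptavidin donor beads (2 h each, RT), with AlphaScreen read-out.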

T1 sequence (P10721 26-976): as the sequence (P10721 26-976 D816V) above, with V791D counted along it

Row | Compound | IC50 (wild type Kit) | IC50 (D816V Kit) | IC50 [1]
1 | COc1cc(Nc2ncnc(N3CCN(c4ncc(Cc5ccccc5)cn4)CC3)n2)cc(OC)c1 [Compound 54] | 100 to 1000 nM | 1.01 to 10 nM | 
2 | c1ccc(Cc2cnc(N3CCN(c4ncnc(Nc5cc[nH]n5)n4)CC3)nc2)cc1 [Compound 5] | 100 to 1000 nM | 1.01 to 10 nM | 1000 to 10000 nM
3 | CN1CCO[C@@H](Cn2cc(Nc3ncnc(N4CCN(c5ncc(Cc6ccccc6)cn5)CC4)n3)cn2)C1 [Compound 180] | 11 to 100 nM | < 1 nM | 10 to 100 nM
4 | c1ccc(Cc2cnc(N3CCN(c4ncnc(Nc5cnn(C[C@H]6CCCN6)c5)n4)CC3)nc2)cc1 [Compound 84] | < 10 nM | < 1 nM | 10 to 100 nM
5 | Nc1cncc(Nc2ncnc(N3CCN(c4ncc(Cc5ccccc5)cn4)CC3)n2)c1 [Compound 13] | < 10 nM | < 1 nM | 10 to 100 nM
6 | CC(=O)NCc1cccc(Nc2ncnc(N3CCN(c4ncc(Cc5ccccc5)cn4)CC3)n2)c1 [Compound 74] | 11 to 100 nM | < 1 nM | 10 to 100 nM
7 | CN(C)Cc1cccc(Nc2ncnc(N3CCN(c4ncc(Cc5ccccc5)cn4)CC3)n2)c1 [Compound 49] | 11 to 100 nM | < 1 nM | 10 to 100 nM
8 | OCCN1CCc2ccc(Nc3ncnc(N4CCN(c5ncc(Cc6ccccc6)cn5)CC4)n3)cc2C1 [Compound 163] | < 10 nM | < 1 nM | 10 to 100 nM
9 | OCC(O)Cn1cc(Nc2ncnc(N3CCN(c4ncc(Cc5ccccc5)cn4)CC3)n2)cn1 (stereo not drawn) [Compound 64, 3-(4-(4-(4-(5-benzylpyrimidin-2-yl)piperazin-1-yl)-1,3,5-triazin-2-ylamino)-1H-pyrazol-1-yl)propane-1,2-diol] | 11 to 100 nM | < 1 nM | 10 to 100 nM
10 | N#Cc1ccc(NC(=O)N2CCN(c3ncnc(Nc4ccc(N5CCOCC5)cc4)n3)CC2)cc1 [Compound 59] | 100 to 1000 nM | > 100 nM | 
11 | FC1(F)CN(Cc2cccc(Nc3ncnc(N4CCN(c5ncc(Cc6ccccc6)cn5)CC4)n3)c2)C1 [Compound 188] | 11 to 100 nM | 1.01 to 10 nM | 10 to 100 nM
12 | Cc1cc(N2CCN(C)CC2)ccc1Nc1ncnc(N2CCN(c3ncc(Cc4ccccc4)cn3)CC2)n1 [Compound 212] | 11 to 100 nM | 1.01 to 10 nM | 100 to 1000 nM
13 | Fc1ccccc1Cc1cnc(N2CCN(c3ncnc(Nc4ccc5c(c4)CNCC5)n3)CC2)nc1 [Compound 127] | < 10 nM | < 1 nM | 10 to 100 nM
14 | CN(C)CCn1cc(Nc2ncnc(N3CCN(c4ncc(Cc5ccccc5)cn4)CC3)n2)cn1 [Compound 60] | 11 to 100 nM | < 1 nM | 10 to 100 nM
15 | CP(C)(=O)c1ccc(Nc2ncnc(N3CCN(c4ncc(Nc5ccc(F)cc5)cn4)CC3)n2)cc1 [Compound 144] | 11 to 100 nM | 1.01 to 10 nM | 100 to 1000 nM
16 | c1ccc(Cc2cnc(N3CCN(c4ncnc(Nc5cnn(C[C@@H]6CCCN6)c5)n4)CC3)nc2)cc1 [Compound 85] | 11 to 100 nM | < 1 nM | 10 to 100 nM
17 | Oc1ccccc1Cc1cnc(N2CCN(c3ncnc(Nc4ccc5c(c4)CNCC5)n3)CC2)nc1 [Compound 115] | < 10 nM | < 1 nM | 10 to 100 nM
18 | c1ccc(Nc2cnc(N3CCN(c4ncnc(Nc5ccccc5)n4)CC3)nc2)cc1 [Compound 9] | 100 to 1000 nM | 10 to 100 nM | 
19 | c1ccc(Cc2cnc(N3CCN(c4ncnc(NCCCN5CCOCC5)n4)CC3)nc2)cc1 [Compound 37] | > 1000 nM | > 100 nM | 
20 | CS(=O)(=O)c1ccc(Nc2ncnc(N3CCN(C(=O)Nc4ccc(C#N)cc4)CC3)n2)cc1 [Compound 40] | 11 to 100 nM | 10 to 100 nM | 
21 | c1ccc(Cc2cnc(N3CCN(c4ncnc(Nc5ccc6c(c5)CNCC6)n4)C(Cc4ccccc4)C3)nc2)cc1 (stereo not drawn) [Compound 274] | 100 to 1000 nM | 10 to 100 nM | 

The next lines start with the values.

Row | IC50 (wild type Kit) | IC50 (D816V Kit) | IC50 [1] | Compound
22 | 11 to 100 nM | < 1 nM | 10 to 100 nM | c1ccc(Cc2cnc(N3CCN(c4ncnc(Nc5ccc(OC[C@@H]6CCCN6)cc5)n4)CC3)nc2)cc1 [Compound 170]
23 | 11 to 100 nM | < 1 nM | 100 to 1000 nM | NCc1cccc(Nc2ncnc(N3CCN(c4ncc(Cc5ccccc5)cn4)CC3)n2)c1 [Compound 14]
24 | < 10 nM | < 1 nM | 10 to 100 nM | CN1CCN(c2ccc(Nc3ncnc(N4CCN(c5ncc(Cc6ccccc6)cn5)CC4)n3)cc2)CC1 [Compound 156]
25 | 11 to 100 nM | 1.01 to 10 nM | 100 to 1000 nM | NC(=O)c1cccc(Nc2ncnc(N3CCN(c4ncc(Cc5ccccc5)cn4)CC3)n2)c1 [Compound 23]
26 | 11 to 100 nM | 1.01 to 10 nM | 100 to 1000 nM | c1ccc(Cc2cnc(N3CCN(c4ncnc(Nc5cccc(N6CCOCC6)c5)n4)CC3)nc2)cc1 [Compound 104]
27 | < 10 nM | < 1 nM | 10 to 100 nM | CN1CCC[C@H]1COc1ccc(Nc2ncnc(N3CCN(c4ncc(Cc5ccccc5)cn4)CC3)n2)cc1 [Compound 219]
28 | 100 to 1000 nM | 1.01 to 10 nM | 100 to 1000 nM | c1ccc(Nc2cnc(N3CCN(c4ncnc(Nc5ccc(N6CCOCC6)cc5)n4)CC3)nc2)cc1 [Compound 114]
29 | 11 to 100 nM | 1.01 to 10 nM | 100 to 1000 nM | C[C@@H]1CN(c2ncnc(Nc3ccc(N4CCOCC4)cc3)n2)CCN1c1ncc(Cc2ccccc2)cn1 [Compound 159]
30 | < 10 nM | < 1 nM | < 10 nM | OCCC1CN(c2ncnc(Nc3ccc4c(c3)CNCC4)n2)CCN1c1ncc(Cc2ccccc2)cn1 (stereo not drawn) [Compound 164]
31 | 11 to 100 nM | 1.01 to 10 nM | 100 to 1000 nM | C[C@@H]1CN(c2ncnc(Nc3ccc(P(C)(C)=O)cc3)n2)CCN1c1ncc(Cc2ccccc2)cn1 [Compound 128]
32 | 11 to 100 nM | 1.01 to 10 nM | 100 to 1000 nM | Cc1cc(N2CCNCC2)ccc1Nc1ncnc(N2CCN(c3ncc(Cc4ccccc4)cn3)CC2)n1 [Compound 158]
33 | 11 to 100 nM | 1.01 to 10 nM | 100 to 1000 nM | NC(=O)c1ccc(Nc2ncnc(N3CCN(c4ncc(Cc5ccccc5)cn4)CC3)n2)cc1 [Compound 24]
34 | < 10 nM | < 1 nM | 10 to 100 nM | CN1CCC[C@@H]1COc1ccc(Nc2ncnc(N3CCN(c4ncc(Cc5ccccc5)cn4)CC3)n2)cc1 [Compound 218]
35 | 11 to 100 nM | < 1 nM | 100 to 1000 nM | c1ccc(Cc2cnc(N3CCN(c4ncnc(Nc5cccc(O[C@@H]6CCNC6)c5)n4)CC3)nc2)cc1 [Compound 105]
36 | < 10 nM | < 1 nM | < 10 nM | c1ccc(Cc2cnc(N3CCN(c4ncnc(Nc5ccc(O[C@H]6CCCNC6)cc5)n4)CC3)nc2)cc1 [Compound 162]
37 | 11 to 100 nM | 1.01 to 10 nM | 10 to 100 nM | c1ccc(Cc2cnc(N3CCN(c4ncnc(Nc5ccc6c(c5)NCCC6)n4)CC3)nc2)cc1 [Compound 42]
38 | 11 to 100 nM | < 1 nM | 100 to 1000 nM | CP(C)(=O)c1ccc(Nc2ncnc(N3CCN(c4ncc(Cc5ccccc5)cn4)CC3)n2)cc1 [Compound 89]
39 | 11 to 100 nM | 1.01 to 10 nM | 10 to 100 nM | CS(=O)(=O)c1ccc(Nc2ncnc(N3CCN(c4ncc(Cc5ccccc5)cn4)CC3)n2)cc1 [Compound 94]
40 | < 10 nM | < 1 nM | 10 to 100 nM | c1ccc(Cc2cnc(N3CCN(c4ncnc(Nc5ccc6c(c5)CNCC6)n4)CC3)nc2)cc1 [Compound 41]
41 | 11 to 100 nM | 1.01 to 10 nM | 1000 to 10000 nM | c1ccc(Cc2cnc(N3CCN(c4ncnc(Nc5ccccc5)n4)CC3)nc2)cc1 [Compound 7]
42 | 11 to 100 nM | < 1 nM | 10 to 100 nM | c1ccc(Cc2cnc(N3CCN(c4ncnc(Nc5ccc(OC[C@H]6CCCN6)cc5)n4)CC3)nc2)cc1 [Compound 169]
43 | < 10 nM | < 1 nM | 10 to 100 nM | CN(C)[C@H]1CCN(Cc2cccc(Nc3ncnc(N4CCN(c5ncc(Cc6ccccc6)cn5)CC4)n3)c2)C1 [Compound 260]
44 | 11 to 100 nM | < 1 nM | 10 to 100 nM | c1ccc(Cc2cnc(N3CCN(c4ncnc(Nc5cnn(CC6CCOC6)c5)n4)CC3)nc2)cc1 (stereo not drawn) [Compound 86]
45 | < 10 nM | < 1 nM | < 10 nM | CN1CCC[C@H](Oc2ccc(Nc3ncnc(N4CCN(c5ncc(Cc6ccccc6)cn5)CC4)n3)cc2)C1 [Compound 217]
46 | 11 to 100 nM | 1.01 to 10 nM | 100 to 1000 nM | c1ccc(Cc2cnc(N3CCN(c4ncnc(Nc5ccc(N6CCOCC6)cc5)n4)CC3)nc2)cc1 [Compound 103]
